Assay results taken from the NIST ThermoML archive (doi:10.1016/j.fluid.2005.07.017).

Experiment: xn = mol fraction of the nth substance listed
Conditions: Liquid, Vibrating tube method

c1ccsc1 [thiophene] + O=C=O
Conditions	mass density [kg/m3]
293.15 K, 101 kPa, x2 = 0	1063.59
303.15 K, 101 kPa, x2 = 0	1051.55
313.06 K, 7053 kPa, x2 = 0.5661	983.33
313.06 K, 8092 kPa, x2 = 0.5661	985.63
313.06 K, 8911 kPa, x2 = 0.5661	987.46
313.06 K, 10009 kPa, x2 = 0.5661	989.71
313.06 K, 11009 kPa, x2 = 0.5661	991.78
313.06 K, 11980 kPa, x2 = 0.5661	993.76
313.06 K, 13003 kPa, x2 = 0.5661	995.81
313.06 K, 13999 kPa, x2 = 0.5661	997.77
313.06 K, 15006 kPa, x2 = 0.5661	999.68
313.06 K, 15996 kPa, x2 = 0.5661	1001.53
313.06 K, 17015 kPa, x2 = 0.5661	1003.44
313.06 K, 17998 kPa, x2 = 0.5661	1005.25
313.06 K, 19007 kPa, x2 = 0.5661	1007.09
313.07 K, 4997 kPa, x2 = 0.199	1030.05
313.07 K, 6011 kPa, x2 = 0.199	1031.17
313.07 K, 7011 kPa, x2 = 0.199	1032.32
313.07 K, 8006 kPa, x2 = 0.199	1033.43
313.07 K, 9032 kPa, x2 = 0.199	1034.56
313.07 K, 10022 kPa, x2 = 0.199	1035.65
313.07 K, 11026 kPa, x2 = 0.199	1036.74
313.07 K, 12001 kPa, x2 = 0.199	1037.83
313.07 K, 13018 kPa, x2 = 0.199	1038.9
313.07 K, 13993 kPa, x2 = 0.199	1039.92
313.07 K, 14989 kPa, x2 = 0.199	1040.95
313.07 K, 16012 kPa, x2 = 0.199	1042.03
313.07 K, 17005 kPa, x2 = 0.199	1043.03
313.07 K, 18003 kPa, x2 = 0.199	1044.05
313.07 K, 19065 kPa, x2 = 0.199	1045.15
313.09 K, 1029 kPa, x2 = 0	1040.96
313.09 K, 1969 kPa, x2 = 0	1041.84
313.09 K, 2970 kPa, x2 = 0	1042.78
313.09 K, 3987 kPa, x2 = 0	1043.71
313.09 K, 5055 kPa, x2 = 0	1044.72
313.09 K, 5952 kPa, x2 = 0	1045.51
313.09 K, 6937 kPa, x2 = 0	1046.43
313.09 K, 8032 kPa, x2 = 0	1047.39
313.09 K, 9218 kPa, x2 = 0	1048.44
313.09 K, 10045 kPa, x2 = 0	1049.18
313.09 K, 11012 kPa, x2 = 0	1050.03
313.09 K, 12014 kPa, x2 = 0	1050.9
313.09 K, 12995 kPa, x2 = 0	1051.74
313.09 K, 13961 kPa, x2 = 0	1052.59
313.09 K, 14970 kPa, x2 = 0	1053.43
313.09 K, 15953 kPa, x2 = 0	1054.26
313.09 K, 17004 kPa, x2 = 0	1055.16
313.09 K, 18003 kPa, x2 = 0	1055.95
313.09 K, 18904 kPa, x2 = 0	1056.76
313.13 K, 9091 kPa, x2 = 0.9217	798.81
313.13 K, 10071 kPa, x2 = 0.9217	813.05
313.13 K, 11026 kPa, x2 = 0.9217	824.67
313.13 K, 12059 kPa, x2 = 0.9217	836.13
313.13 K, 13037 kPa, x2 = 0.9217	845.52
313.13 K, 14012 kPa, x2 = 0.9217	854.21
313.13 K, 15001 kPa, x2 = 0.9217	862.38
313.13 K, 16014 kPa, x2 = 0.9217	870.06
313.13 K, 17035 kPa, x2 = 0.9217	877.41
313.13 K, 18056 kPa, x2 = 0.9217	884.26
313.13 K, 19024 kPa, x2 = 0.9217	890.25
313.13 K, 19849 kPa, x2 = 0.9217	895.22
313.13 K, 20858 kPa, x2 = 0.9217	901.01
313.13 K, 21968 kPa, x2 = 0.9217	907.04
313.13 K, 23020 kPa, x2 = 0.9217	912.42
313.13 K, 24013 kPa, x2 = 0.9217	917.38
313.13 K, 25004 kPa, x2 = 0.9217	921.98
313.14 K, 5783 kPa, x2 = 0.3818	1008.02
313.14 K, 6953 kPa, x2 = 0.3818	1010.44
313.14 K, 7991 kPa, x2 = 0.6996	974.06
313.14 K, 8014 kPa, x2 = 0.3818	1012.13
313.14 K, 9021 kPa, x2 = 0.3818	1013.7
313.14 K, 9112 kPa, x2 = 0.6996	977.19
313.14 K, 9872 kPa, x2 = 0.6996	979.01
313.14 K, 9948 kPa, x2 = 0.3818	1015.07
313.14 K, 10945 kPa, x2 = 0.3818	1016.6
313.14 K, 10946 kPa, x2 = 0.6996	981.56
313.14 K, 11951 kPa, x2 = 0.6996	983.92
313.14 K, 12015 kPa, x2 = 0.3818	1018.22
313.14 K, 13025 kPa, x2 = 0.3818	1019.65
313.14 K, 13033 kPa, x2 = 0.6996	986.45
313.14 K, 13973 kPa, x2 = 0.3818	1021.04
313.14 K, 13991 kPa, x2 = 0.6996	988.63
313.14 K, 14931 kPa, x2 = 0.6996	990.71
313.14 K, 15006 kPa, x2 = 0.3818	1022.52
313.14 K, 15988 kPa, x2 = 0.6996	993.02
313.14 K, 15992 kPa, x2 = 0.3818	1023.89
313.14 K, 16994 kPa, x2 = 0.6996	995.2
313.14 K, 17012 kPa, x2 = 0.3818	1025.32
313.14 K, 18022 kPa, x2 = 0.6996	997.41
313.14 K, 18039 kPa, x2 = 0.3818	1026.72
313.14 K, 18908 kPa, x2 = 0.3818	1027.86
313.15 K, 101 kPa, x2 = 0	1039.32
322.95 K, 5076 kPa, x2 = 0.199	1016.5
322.95 K, 6015 kPa, x2 = 0.199	1017.63
322.95 K, 7042 kPa, x2 = 0.199	1018.88
322.95 K, 8054 kPa, x2 = 0.199	1020.1
322.95 K, 9012 kPa, x2 = 0.199	1021.25
322.95 K, 9975 kPa, x2 = 0.199	1022.38
322.95 K, 11019 kPa, x2 = 0.199	1023.61
322.95 K, 12001 kPa, x2 = 0.199	1024.72
322.95 K, 12978 kPa, x2 = 0.199	1025.86
322.95 K, 14026 kPa, x2 = 0.199	1027.05
322.95 K, 15010 kPa, x2 = 0.199	1028.15
322.95 K, 16019 kPa, x2 = 0.199	1029.28
322.95 K, 17005 kPa, x2 = 0.199	1030.36
322.95 K, 18005 kPa, x2 = 0.199	1031.46
